From patent US9340590B2 (priority 2011, dated 2016)
Several values for one entry are separate records, joined by “and”; a condition that tells them apart may be missing. Identical values can stand only once. Entries after “also recorded” stand apart in the source; their conditions may differ. Like-named read-outs stand apart in the source and are kept apart here.

What was measured:
[1] = test system: voltage-gated potassium currents; type: cell-based; conditions: 500 nM; rat DRG neuron, step to 0 mV from −90 mV
[2] = mouse plasma, 37° C., incubation time 0 hr (normalisation point)
[3] = test system: locomotor activity in male CD-1 mice
fast sodium current = type: cell-based; conditions: 500 nM; rat DRG neuron, step to 0 mV from −90 mV
[4] = test system: formalin pain model in male CD-1 mice; conditions: for time spent lifting/licking, first phase / time spent lifting/licking, second phase: third study
[5] = human plasma, 37° C., incubation time 0 hr (normalisation point)
hNav1.3 [6] = target: T1, hNav1.3 (Homo sapiens, UniProt Q9NY46); assay: cell-based; type: cell-based; conditions: Nav1.3 Use IC50
hNav1.5 [7] = target: T2, hNav1.5 (Homo sapiens, UniProt Q14524); assay: cell-based; conditions: PatchXpress counterscreen; held at −80 mV, prepulse −120 mV, test step −30 mV; read-out: IC50 against hNav1.5 (counterscreen)
[8] = test system: TTX-sensitive Nav channels in mouse DRG neurons; type: cell-based
in vivo [9] = conditions: male, CD-1, mouse, sc, terminal exposure (peptide plasma concentration at 2 h post peptide injection)
hERG = hERG (Homo sapiens, UniProt Q12809); assay: cell-based
hNav1.5 [10] = target: T2, hNav1.5; assay: cell-based
hNav1.5 [11] = target: T2, hNav1.5; assay: cell-based; conditions: IonWorks Quattro; clamped to −110 mV, depolarized to −10 mV, 5 min after compound; n=2; read-out: IWQ Use Nav1.5
hNav1.2 = hNav1.2 (Homo sapiens, UniProt Q99250); assay: cell-based; conditions: partially inactivated channels; read-out: IC50 against partially inactivated hNav1.2 channels
in vitro [12] = conditions: human, plasma
hNav1.7 [13] = target: T3, hNav1.7 (Homo sapiens, UniProt Q15858); type: cell-based
in vivo [14] = conditions: male, CD-1, mouse, sc
in vivo [15] = conditions: CD-1, mouse
hNav1.7 [16] = target: T3, hNav1.7; assay: cell-based; conditions: Nav1.7 Use IC50
[17] = test system: isolated perfused rabbit heart
hNav1.7 [18] = target: T3, hNav1.7; assay: cell-based; type: cell-based
in vitro [19] = conditions: mouse, plasma
[20] = test system: isolated perfused rabbit heart; remark: listed apart in the source
hNav1.3 [21] = target: T1, hNav1.3; assay: cell-based; conditions: IonWorks Quattro; clamped to −110 mV, depolarized to −10 mV, 5 min after compound; n=2; read-out: IWQ Use Nav1.3
Nav1.6 = Nav1.6 (Rattus norvegicus, UniProt O88420); conditions: read-out: TTX IC50; cited from earlier work
Nav1.8 = Nav1.8 (Rattus norvegicus, UniProt Q62968); conditions: read-out: TTX IC50; cited from earlier work
Nav1.7 = Nav1.7 (Rattus norvegicus, UniProt O08562); conditions: read-out: TTX IC50; cited from earlier work
Nav1.4 = Nav1.4 (Rattus norvegicus, UniProt P15390); conditions: read-out: TTX IC50; cited from earlier work
Nav1.3 = Nav1.3 (Rattus norvegicus, UniProt P08104); conditions: read-out: TTX IC50; cited from earlier work
[22] = first study, 5 mg/kg s.c., 1-hour pre-treatment
[23] = later studies (FIGS. 99-110), 5 mg/kg s.c., 1-hour pre-treatment

T1 sequence (Q9NY46 whole entry, looked up): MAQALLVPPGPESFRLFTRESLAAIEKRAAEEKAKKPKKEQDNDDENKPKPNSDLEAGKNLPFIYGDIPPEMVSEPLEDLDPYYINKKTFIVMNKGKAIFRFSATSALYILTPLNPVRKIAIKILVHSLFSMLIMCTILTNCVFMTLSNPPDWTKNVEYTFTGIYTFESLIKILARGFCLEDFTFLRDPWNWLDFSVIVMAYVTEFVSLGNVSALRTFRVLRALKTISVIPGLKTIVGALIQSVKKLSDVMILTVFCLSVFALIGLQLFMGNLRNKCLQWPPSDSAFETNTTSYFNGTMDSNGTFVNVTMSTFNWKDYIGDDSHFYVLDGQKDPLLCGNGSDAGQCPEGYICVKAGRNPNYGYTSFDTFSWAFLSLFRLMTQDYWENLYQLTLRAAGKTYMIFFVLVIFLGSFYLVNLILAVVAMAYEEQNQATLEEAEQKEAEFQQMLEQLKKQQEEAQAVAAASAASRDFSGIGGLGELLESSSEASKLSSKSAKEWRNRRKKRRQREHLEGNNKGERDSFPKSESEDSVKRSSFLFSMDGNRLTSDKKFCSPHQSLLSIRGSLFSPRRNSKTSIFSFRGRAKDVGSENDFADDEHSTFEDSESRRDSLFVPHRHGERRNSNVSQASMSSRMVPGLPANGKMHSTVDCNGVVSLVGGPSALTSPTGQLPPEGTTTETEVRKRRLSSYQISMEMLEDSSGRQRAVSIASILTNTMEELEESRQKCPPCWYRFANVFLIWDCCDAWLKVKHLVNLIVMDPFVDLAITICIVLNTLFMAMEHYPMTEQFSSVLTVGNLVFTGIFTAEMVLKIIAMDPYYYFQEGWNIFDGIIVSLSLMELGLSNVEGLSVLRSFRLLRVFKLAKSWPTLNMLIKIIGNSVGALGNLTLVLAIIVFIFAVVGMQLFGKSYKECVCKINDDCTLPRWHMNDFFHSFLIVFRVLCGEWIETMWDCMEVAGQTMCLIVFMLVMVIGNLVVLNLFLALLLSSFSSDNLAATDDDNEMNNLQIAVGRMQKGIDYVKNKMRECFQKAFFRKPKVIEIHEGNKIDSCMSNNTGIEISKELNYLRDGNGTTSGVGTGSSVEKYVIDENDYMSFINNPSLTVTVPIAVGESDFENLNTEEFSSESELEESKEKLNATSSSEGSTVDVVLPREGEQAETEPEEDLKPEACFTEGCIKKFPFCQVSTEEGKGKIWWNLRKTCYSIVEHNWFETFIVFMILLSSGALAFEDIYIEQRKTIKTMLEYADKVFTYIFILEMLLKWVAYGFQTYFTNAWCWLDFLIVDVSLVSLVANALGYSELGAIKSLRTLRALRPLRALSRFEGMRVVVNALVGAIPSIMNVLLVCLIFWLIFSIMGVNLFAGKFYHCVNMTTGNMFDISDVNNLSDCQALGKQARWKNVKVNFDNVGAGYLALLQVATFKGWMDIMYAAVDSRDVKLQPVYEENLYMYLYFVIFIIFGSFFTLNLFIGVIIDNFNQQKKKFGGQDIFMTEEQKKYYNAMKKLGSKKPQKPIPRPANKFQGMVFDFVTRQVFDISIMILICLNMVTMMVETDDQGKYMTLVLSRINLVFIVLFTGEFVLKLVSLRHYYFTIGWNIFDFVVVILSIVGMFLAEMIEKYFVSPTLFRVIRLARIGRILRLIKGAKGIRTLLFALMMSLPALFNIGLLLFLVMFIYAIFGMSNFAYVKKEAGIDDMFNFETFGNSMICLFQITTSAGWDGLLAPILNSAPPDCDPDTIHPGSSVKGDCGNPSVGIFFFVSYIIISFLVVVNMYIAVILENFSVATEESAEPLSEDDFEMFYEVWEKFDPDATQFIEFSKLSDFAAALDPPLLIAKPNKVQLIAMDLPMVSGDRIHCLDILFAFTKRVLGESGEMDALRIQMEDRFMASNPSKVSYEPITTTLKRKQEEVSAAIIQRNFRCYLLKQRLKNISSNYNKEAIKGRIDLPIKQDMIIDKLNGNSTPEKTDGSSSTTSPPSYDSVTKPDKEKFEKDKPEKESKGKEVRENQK
T3 sequence (Q15858 whole entry, looked up): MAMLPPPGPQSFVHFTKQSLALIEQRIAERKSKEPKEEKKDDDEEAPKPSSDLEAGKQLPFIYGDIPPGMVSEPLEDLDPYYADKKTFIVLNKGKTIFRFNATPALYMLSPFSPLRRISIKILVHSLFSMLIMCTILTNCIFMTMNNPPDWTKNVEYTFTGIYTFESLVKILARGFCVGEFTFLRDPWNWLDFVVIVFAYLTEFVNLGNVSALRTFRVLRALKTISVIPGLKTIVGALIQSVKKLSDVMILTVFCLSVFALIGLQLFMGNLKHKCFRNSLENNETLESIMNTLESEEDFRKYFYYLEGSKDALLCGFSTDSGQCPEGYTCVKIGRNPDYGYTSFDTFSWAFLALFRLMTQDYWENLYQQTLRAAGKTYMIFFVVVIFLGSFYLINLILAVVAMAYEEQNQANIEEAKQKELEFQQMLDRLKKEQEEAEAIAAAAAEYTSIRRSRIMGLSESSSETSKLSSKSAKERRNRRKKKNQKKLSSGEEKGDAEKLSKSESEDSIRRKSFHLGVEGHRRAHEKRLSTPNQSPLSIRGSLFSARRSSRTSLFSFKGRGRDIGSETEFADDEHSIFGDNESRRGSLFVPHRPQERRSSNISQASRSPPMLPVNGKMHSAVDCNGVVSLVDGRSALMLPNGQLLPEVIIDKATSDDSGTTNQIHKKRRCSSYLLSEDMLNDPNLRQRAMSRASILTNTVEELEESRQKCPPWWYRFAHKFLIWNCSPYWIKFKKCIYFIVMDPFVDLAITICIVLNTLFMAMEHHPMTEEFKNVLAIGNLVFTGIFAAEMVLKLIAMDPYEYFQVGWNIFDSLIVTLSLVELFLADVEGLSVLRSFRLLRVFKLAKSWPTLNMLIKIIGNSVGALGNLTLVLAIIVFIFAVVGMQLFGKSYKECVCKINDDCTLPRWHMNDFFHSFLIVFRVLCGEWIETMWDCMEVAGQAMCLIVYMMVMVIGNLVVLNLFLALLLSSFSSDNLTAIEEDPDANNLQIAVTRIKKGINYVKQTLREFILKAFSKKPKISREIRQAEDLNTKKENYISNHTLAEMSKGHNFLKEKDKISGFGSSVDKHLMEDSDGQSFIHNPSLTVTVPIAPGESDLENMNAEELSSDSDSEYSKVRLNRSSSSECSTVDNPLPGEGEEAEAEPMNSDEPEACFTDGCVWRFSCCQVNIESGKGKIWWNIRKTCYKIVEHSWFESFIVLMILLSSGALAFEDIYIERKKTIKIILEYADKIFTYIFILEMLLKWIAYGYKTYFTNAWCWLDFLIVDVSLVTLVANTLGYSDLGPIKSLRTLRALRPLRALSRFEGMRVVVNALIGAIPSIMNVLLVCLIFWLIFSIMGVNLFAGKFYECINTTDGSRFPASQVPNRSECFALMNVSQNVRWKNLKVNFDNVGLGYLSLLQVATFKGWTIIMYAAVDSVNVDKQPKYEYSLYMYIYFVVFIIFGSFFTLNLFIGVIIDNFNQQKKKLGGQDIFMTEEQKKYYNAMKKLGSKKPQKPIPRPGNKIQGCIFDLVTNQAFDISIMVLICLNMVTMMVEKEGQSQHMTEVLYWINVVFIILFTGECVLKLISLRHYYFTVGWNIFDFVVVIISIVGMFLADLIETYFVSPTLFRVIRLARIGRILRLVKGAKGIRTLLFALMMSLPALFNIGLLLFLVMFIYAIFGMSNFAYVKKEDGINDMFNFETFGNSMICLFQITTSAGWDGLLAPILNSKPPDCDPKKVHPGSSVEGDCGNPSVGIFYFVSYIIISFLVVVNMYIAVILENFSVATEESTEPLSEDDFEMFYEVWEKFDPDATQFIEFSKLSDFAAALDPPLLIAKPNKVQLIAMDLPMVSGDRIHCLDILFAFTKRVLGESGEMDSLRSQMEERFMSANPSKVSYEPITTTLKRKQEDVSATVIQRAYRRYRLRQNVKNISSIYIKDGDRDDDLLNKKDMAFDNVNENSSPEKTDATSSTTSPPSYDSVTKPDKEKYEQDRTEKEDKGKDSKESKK
Chain of hERG (Q12809 whole entry): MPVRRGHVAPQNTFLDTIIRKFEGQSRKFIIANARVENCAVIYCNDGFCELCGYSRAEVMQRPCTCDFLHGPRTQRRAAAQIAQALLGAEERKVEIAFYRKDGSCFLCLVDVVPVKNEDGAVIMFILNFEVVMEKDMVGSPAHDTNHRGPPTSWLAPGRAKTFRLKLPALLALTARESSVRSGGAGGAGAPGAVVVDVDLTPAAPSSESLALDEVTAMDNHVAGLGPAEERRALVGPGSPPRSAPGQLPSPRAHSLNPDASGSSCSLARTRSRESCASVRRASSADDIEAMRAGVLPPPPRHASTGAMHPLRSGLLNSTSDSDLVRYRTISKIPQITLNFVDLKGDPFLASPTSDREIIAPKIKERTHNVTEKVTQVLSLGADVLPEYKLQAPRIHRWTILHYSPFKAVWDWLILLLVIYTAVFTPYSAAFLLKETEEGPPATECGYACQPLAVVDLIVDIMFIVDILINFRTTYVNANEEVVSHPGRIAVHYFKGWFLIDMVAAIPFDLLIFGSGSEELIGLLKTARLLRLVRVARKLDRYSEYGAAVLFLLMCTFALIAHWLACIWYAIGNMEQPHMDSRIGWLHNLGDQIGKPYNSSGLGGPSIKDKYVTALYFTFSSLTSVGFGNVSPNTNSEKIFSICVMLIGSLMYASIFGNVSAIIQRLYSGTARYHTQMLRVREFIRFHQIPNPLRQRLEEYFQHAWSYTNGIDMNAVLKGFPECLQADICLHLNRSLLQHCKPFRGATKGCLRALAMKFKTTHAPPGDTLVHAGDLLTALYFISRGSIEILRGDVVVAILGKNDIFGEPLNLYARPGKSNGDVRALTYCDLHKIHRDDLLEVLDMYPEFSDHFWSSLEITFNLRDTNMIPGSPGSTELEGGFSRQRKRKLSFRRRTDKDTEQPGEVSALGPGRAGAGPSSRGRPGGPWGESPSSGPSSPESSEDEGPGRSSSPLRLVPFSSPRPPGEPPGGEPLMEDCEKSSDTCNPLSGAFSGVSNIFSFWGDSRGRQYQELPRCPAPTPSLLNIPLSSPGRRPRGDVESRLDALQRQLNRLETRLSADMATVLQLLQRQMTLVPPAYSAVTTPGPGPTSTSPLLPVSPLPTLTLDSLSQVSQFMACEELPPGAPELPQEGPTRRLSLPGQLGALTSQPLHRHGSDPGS

CC[C@H](C)[C@@H]1NC(=O)[C@@H]2CSSC[C@@H]3NC(=O)[C@H](C(C)C)NC(=O)[C@H](CC(C)C)NC(=O)[C@H](CC(N)=O)NC(=O)[C@@H]4CCCN4C(=O)[C@H](CCCNC(=N)N)NC(=O)[C@H](CSSC[C@H](NC(=O)[C@@H](N)CC(=O)O)C(=O)N[C@@H](CC(C)C)C(=O)NCC(=O)N[C@@H](C)C(=O)N[C@@H](CCSC)C(=O)N[C@@H](CCCNC(=N)N)C(=O)N[C@@H](CCCCN)C(=O)N2)NC(=O)[C@H](CSSC[C@@H](C(=O)N[C@@H](CCCCN)C(=O)N[C@@H](Cc2ccc(O)cc2)C(=O)N[C@H](C(=O)N[C@@H](Cc2ccccc2)C(N)=O)C(C)C)NC(=O)[C@H](Cc2c[nH]c4ccccc24)NC(=O)[C@H](CCCCN)NC(=O)[C@H](Cc2cnc[nH]2)NC(=O)[C@H]([C@@H](C)O)NC(=O)[C@H](CCCNC(=N)N)NC(=O)[C@H](CO)NC3=O)NC(=O)[C@H](CCCCN)NC(=O)[C@H](CC(=O)O)NC(=O)[C@H](CC(N)=O)NC(=O)[C@H](CC(=O)O)NC(=O)[C@@H]2CCCN2C1=O [SEQ ID NO: 22]
effect on voltage-gated potassium currents [1]: did not block voltage-gated potassium currents | % peptide remaining [2]: 100% | total fine movement [3, 22]: significantly reduced | total time rearing [3, 22]: significantly reduced | total basic movement [3, 23]: significantly reduced | total fine movement [3, 23]: significantly reduced | total rearing [3, 23]: significantly reduced | total time rearing [3, 23]: significantly reduced | peptide plasma concentrations resulting in significant effects on locomotor activity ([3]; mouse, in vivo): > 1.5 µM | effect on fast sodium current (fast sodium current): blocked fast sodium current; also recorded: steadily decreased | plasma concentrations with significant reproducible reduction in paw lifting/licking ([4]; first two mouse formalin experiments): 0.60 to 0.80 µM | time spent lifting and/or licking the affected paw, second phase (5-40 minutes post formalin injection) ([4]; mouse, in vivo): significantly reduced | time spent lifting/licking, first phase ([4]; peptide 1 mg/kg s.c.): appeared to increase | time spent lifting/licking, second phase ([4]; peptide 1 mg/kg s.c.): not significantly different | time spent lifting/licking, first phase ([4]; peptide 3 mg/kg s.c.): appeared to increase | time spent lifting/licking, second phase ([4]; peptide 3 mg/kg s.c.): appeared to significantly increase | tolerability in mice (1 mg/kg i.v.): tolerated | exposure in blood (1 mg/kg s.c.): measurable exposure | sustained peptide concentration in the plasma (5 mg/kg s.c.): about 0.6 μM | time plasma concentration was sustained (5 mg/kg s.c.): 3 h | % peptide remaining [5]: 100% | IC50 (hNav1.3 [6]): 129 nM and 158 nM | IC50 (hNav1.5 [7]): > 30000 nM | block of TTX-sensitive Nav current, time course of increasing concentrations [8]: blocked nearly all TTX-sensitive Nav current | block of TTX-sensitive versus TTX-resistant Nav current [8]: selectively blocked TTX-sensitive Nay current but not TTX-resistant Nav current | IC50 ([8]; cells held at −140 mV, read-out: IC50 against TTX-sensitive sodium channels in mDRG neurons): 17 nM | level at time molar at 2 h (in vivo [9]; 3 mg/kg, first study, 3 mg/kg s.c.): 890 ± 330 nM | level at time molar at 2 h (in vivo [9]; 5 mg/kg, first study, 5 mg/kg s.c.): 1790 ± 380 nM | level at time molar at 2 h (in vivo [9]; 5 mg/kg, later studies, 5 mg/kg s.c.): 2100 ± 470 nM | IC50 (hERG): > 10000 nM | IC50 (hNav1.5 [10]): > 10000 nM | IC50 (hNav1.5 [11]): 10300 nM | IC50 (hNav1.2): 265 nM | remaining at 2 h (in vitro [12]): 105% | remaining at 4 h (in vitro [12]): 99% | remaining at 8 h (in vitro [12]): 101% | remaining at 24 h (in vitro [12]): 105% | inhibition of the Nav1.7 current (hNav1.7 [13]): complete inhibition | IC50 (hNav1.7 [13]; read-out: IC50 against partially inactivated hNav1.7 channels): 13.2 nM | level at time molar at […] (in vivo [14]; 0.5 mg/kg, terminal exposure (peptide plasma concentration at 45 min post formalin injection), second study, 0.5 mg/kg s.c.): 40 nM | level at time molar at […] (in vivo [14]; 1 mg/kg, terminal exposure (peptide plasma concentration at 45 min post formalin injection), third study, 1 mg/kg s.c.): 200 ± 50 nM | level at time molar at […] (in vivo [14]; 3 mg/kg, terminal exposure (peptide plasma concentration at 45 min post formalin injection), third study, 3 mg/kg s.c.): 530 ± 230 nM | level at time molar at […] (in vivo [14]; 5 mg/kg, terminal exposure (peptide plasma concentration at 45 min post formalin injection), second study, 5.0 mg/kg s.c.): 580 ± 260 nM | level at time molar at […] (in vivo [14]; 5 mg/kg, terminal exposure (peptide plasma concentration at 45 min post formalin injection), third study, 5 mg/kg s.c.): 1840 ± 180 nM | level at time molar at […] (in vivo [14]; 5 mg/kg, terminal plasma exposure (peptide plasma concentration at 45 min post formalin injection), first study, 5 mg/kg s.c.): 800 ± 210 nM | half-life (in vivo [15]; sc, 5 mg/kg): 36 min | level at time molar (in vivo [15]; sc, 5 mg/kg): ~600 nM | half-life (in vivo [15]; male, iv, 1 mg/kg): ~15 min | IC50 (hNav1.7 [16]): 18 nM and 34 nM and 30 nM and 14 nM | HR, normalized value, mean [17]: −0.18% | JT, normalized value, mean [17]: −4.57% | JTcF, normalized value, mean [17]: −4.60% | PR, normalized value, mean [17]: −3.52% | QRS, normalized value, mean [17]: −1.55% | QT, normalized value, mean [17]: −4.19% | QTcF, normalized value, mean [17]: −4.22% | heart rate ([17]; 1 μM, 20 minutes): no effects | ventricular depolarization and conduction (QRS and PR intervals) ([17]; 1 μM, 20 minutes): no effects | ventricular repolarization (QTc or JTc intervals) ([17]; 1 μM, 20 minutes): no delaying effects | IC50 (hNav1.7 [18]): 640 nM | remaining at 2 h (in vitro [19]): 106% | remaining at 4 h (in vitro [19]): 107% | remaining at 8 h (in vitro [19]): 105% | remaining at 24 h (in vitro [19]): 99% | Flow, mean, normalized value [20]: 0.29% | LVDP, mean, normalized value [20]: −3.16% | LVDevP, normalized value [20]: −7.22% | LVSP, mean, normalized value [20]: −8.81% | dP/dt+, mean, normalized value [20]: −6.55% | dP/dt−, mean, normalized value [20]: −2.93% | LV contractility (dP/dt+) ([20]; 1 μM, 20 minutes): no effects | coronary blood flow (CF) ([20]; 1 μM, 20 minutes): no effects | coronary vasculature ([20]; 1 μM, 20 minutes): no direct effects | IC50 (hNav1.3 [21]): 1750 nM

NC1=N[C@H](O)[C@H]2[C@H]3O[C@]4(O)O[C@@H]([C@@H](O)[C@@]2(N1)[C@@H]4O)[C@]3(O)CO [TTX, tetrodotoxin]
IC50 (Nav1.6): 1 nM | IC50 (Nav1.8): > 50000 nM | IC50 (Nav1.7): 4 nM | IC50 (Nav1.4): 5 nM | IC50 (Nav1.3): 2 to 15 nM
